According to publication PMC9500072, “Topical application of an irreversible small molecule inhibitor of lysyl oxidases ameliorates skin scarring and fibrosis” (Nature Communications, 2022):

Legend:
Rolipram = experiment: Eurofins panel 270000; assay type: binding, rat; conditions: 10 µM
Histamine H3 = Histamine H3 (Homo sapiens, UniProt Q9Y5N1); experiment: Eurofins panel 239820; assay type: binding
Dopamine D3 = Dopamine D3 (Homo sapiens, UniProt P35462); experiment: Eurofins panel 219800; assay type: binding
Adrenergic α1B = Adrenergic α1B (Rattus norvegicus, UniProt P15823); experiment: Eurofins panel 203200; assay type: binding
Cyclooxygenase COX-1 = Cyclooxygenase COX-1 (Homo sapiens, UniProt P23219); experiment: Eurofins panel 116020; assay type: biochemical
[1] = target: Cholinesterase, Acetyl, ACES (Homo sapiens, UniProt P22303); experiment: Eurofins panel 104010; assay type: biochemical
Sequence of Cholinesterase, Acetyl, ACES (P22303 32-614): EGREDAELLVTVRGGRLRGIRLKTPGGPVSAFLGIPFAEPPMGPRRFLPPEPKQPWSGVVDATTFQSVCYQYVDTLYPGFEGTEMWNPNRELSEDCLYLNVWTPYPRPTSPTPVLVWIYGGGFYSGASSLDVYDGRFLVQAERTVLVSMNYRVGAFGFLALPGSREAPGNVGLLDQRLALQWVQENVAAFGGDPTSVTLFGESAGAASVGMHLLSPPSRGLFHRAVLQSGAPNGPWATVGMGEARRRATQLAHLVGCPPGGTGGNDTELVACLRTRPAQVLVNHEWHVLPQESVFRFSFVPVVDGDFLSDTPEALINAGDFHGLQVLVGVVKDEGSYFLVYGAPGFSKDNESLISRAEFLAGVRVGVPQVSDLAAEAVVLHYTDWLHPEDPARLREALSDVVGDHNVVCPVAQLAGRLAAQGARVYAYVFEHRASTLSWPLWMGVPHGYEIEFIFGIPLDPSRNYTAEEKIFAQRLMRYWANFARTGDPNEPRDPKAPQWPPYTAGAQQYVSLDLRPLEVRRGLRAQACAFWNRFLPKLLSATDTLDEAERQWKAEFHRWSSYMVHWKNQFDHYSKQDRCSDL

Sequence of Adrenergic α1B (P15823 whole entry): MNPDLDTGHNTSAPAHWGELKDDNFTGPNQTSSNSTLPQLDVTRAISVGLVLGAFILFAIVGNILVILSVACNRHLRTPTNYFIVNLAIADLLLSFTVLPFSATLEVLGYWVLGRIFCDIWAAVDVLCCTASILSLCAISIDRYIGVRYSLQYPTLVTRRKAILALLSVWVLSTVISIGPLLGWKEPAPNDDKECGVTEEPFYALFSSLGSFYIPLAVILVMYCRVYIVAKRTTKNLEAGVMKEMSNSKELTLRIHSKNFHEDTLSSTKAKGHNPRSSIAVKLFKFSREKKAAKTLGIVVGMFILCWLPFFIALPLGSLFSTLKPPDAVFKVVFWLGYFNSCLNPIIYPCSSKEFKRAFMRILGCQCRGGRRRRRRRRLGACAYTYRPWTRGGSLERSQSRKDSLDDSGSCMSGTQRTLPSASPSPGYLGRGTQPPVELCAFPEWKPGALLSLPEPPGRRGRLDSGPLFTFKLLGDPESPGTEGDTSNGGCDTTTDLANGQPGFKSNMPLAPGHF
Sequence of Histamine H3 (Q9Y5N1 whole entry): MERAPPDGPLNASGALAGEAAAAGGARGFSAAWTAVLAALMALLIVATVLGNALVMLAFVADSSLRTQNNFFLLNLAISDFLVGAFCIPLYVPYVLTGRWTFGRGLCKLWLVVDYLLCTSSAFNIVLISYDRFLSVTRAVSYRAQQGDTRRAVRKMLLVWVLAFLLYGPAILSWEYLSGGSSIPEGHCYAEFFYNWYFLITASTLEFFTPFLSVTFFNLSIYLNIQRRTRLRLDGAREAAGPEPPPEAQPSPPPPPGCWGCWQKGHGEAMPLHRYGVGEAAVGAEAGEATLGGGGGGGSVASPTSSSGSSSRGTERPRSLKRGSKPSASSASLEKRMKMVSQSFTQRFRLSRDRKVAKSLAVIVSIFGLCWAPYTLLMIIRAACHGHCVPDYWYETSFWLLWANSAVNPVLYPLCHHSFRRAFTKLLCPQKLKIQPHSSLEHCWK
Sequence of Cyclooxygenase COX-1 (P23219 24-599): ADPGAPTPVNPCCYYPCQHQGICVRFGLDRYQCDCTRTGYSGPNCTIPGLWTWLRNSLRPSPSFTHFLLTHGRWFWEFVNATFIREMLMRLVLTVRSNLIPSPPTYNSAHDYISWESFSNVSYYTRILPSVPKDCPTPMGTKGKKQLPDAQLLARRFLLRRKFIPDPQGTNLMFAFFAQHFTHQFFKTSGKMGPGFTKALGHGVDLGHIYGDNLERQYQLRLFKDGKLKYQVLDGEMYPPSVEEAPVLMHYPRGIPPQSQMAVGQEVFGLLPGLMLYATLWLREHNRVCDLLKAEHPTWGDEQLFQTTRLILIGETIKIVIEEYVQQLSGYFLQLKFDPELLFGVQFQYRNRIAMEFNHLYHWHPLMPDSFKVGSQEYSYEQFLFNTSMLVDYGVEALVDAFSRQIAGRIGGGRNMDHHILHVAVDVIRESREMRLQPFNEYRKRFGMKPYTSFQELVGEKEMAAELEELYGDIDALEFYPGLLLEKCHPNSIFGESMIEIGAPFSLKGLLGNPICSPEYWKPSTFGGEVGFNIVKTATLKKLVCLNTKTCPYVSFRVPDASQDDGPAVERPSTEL
Sequence of Dopamine D3 (P35462 whole entry): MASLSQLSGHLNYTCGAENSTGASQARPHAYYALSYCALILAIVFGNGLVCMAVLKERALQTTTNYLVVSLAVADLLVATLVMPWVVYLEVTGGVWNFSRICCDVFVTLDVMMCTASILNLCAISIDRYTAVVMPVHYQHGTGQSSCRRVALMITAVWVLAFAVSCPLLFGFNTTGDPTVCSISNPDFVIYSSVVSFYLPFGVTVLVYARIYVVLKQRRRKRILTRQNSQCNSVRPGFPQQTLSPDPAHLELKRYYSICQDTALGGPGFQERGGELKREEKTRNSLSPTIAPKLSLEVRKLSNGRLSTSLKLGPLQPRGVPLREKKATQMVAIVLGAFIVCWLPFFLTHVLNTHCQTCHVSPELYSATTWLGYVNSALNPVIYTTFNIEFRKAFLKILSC

| SMILES | % Inh. (Rolipram) | inhibition at 10 µM (Histamine H3) | inhibition at 10 µM (Dopamine D3) | inhibition at 10 µM (Adrenergic α1B) | inhibition at 30 µM (Cyclooxygenase COX-1) | inhibition at 30 µM [1] |
| --- | --- | --- | --- | --- | --- | --- |
| NC/C=C(\F)CS(=O)(=O)c1ccccc1 [PXS-4787] | 17% | -5% | 0% | -2% |  |  |
| NC/C=C(\F)C(F)(F)S(=O)(=O)c1ccccc1 [PXS-6302] |  |  |  |  | 36% | 2% |
